Test results from patent US8840934B2 (Rainbow Pharmaceutical SA, priority 2009, dated 2014).

Experiments:
Hepatitis Virus = test: Use of NH4Cl in treating hepatitis virus, reduction of viral charge across patients; assay type: in vivo; conditions: in humans; Patients A and B, 3 months of treatment, 3 gr/day
Method: (§1) Patients were treated according to the above described protocol, using a dose of 3 gr/day.

hepatitis C = test: Clinical treatment of a patient with hepatitis C, viral charge; assay type: in vivo, human; conditions: Patient B, 3 gr/day by the protocol, before treatment 1.65 × 10^8 IU/ml
Method: (§2) The above protocol of administration can be repeated several times until the completion of the treatment as judged by the clinician. For example, 21 cycles of treatment are performed, which complies with the natural time of regeneration of liver after a partial hepatectomy in patients. Therefore, the duration of the treatment can be from 1 to 6 months or from 3 to 4 months for patients with partial necrosis.
as §1

IL-6 = test: Serum IL-6 (ELISA) in TAA-treated Quinster rats given ammonium chloride per os; assay type: in vivo; conditions: 12 hours post the third TAA injection, mean ± SD
Method: (§3) Thioacetamid (TAA) was given to adult male Quinster rats with a course of 400 mg TAA/kg B.W. every 24 hours and for 3 consecutive days. […] The animals were sacrificed in 6 and 12 hours after the 3rd treatment with TTA. TNF-α and IL-6 levels were measured in serum (ELISA test) after 12 hours post the third TAA injection and the results are reported in the following table.

hyaluronic acid = test: Hyaluronic acid levels in treated Quinster rats; assay type: in vivo
Description: The levels of hyaluronic acid in patients with high-grade hepatic damage are usually high, but they appeared decreased in the treated Quinster rats. Furthermore, additional biochemical factors appeared improved.

TNF-α = test: Serum TNF-α (ELISA) in TAA-treated Quinster rats given ammonium chloride per os; assay type: in vivo; conditions: 12 hours post the third TAA injection, mean ± SD
Method: as §3

chronic hepatitis B = test: Clinical treatment of a patient with chronic hepatitis B, viral charge; assay type: in vivo, human; conditions: 3 gr/day by the protocol, before treatment 1.65 × 10^6 IU/ml
Method: as §2, §1

Q: For Cl.N [NH4Cl, ammonium chloride], which “factor of reduction of the viral charge” value (Hepatitis Virus) is on record?
A: at least 10^2

Q: What about the “Viral charge after 3 months of treatment” value (hepatitis C) of the same compound?
A: 1.65 × 10^6 IU/ml

Q: What about the IL-6 (IL-6; Group II, at least 8 animals per group, Control 11 ± 5, Group I 58 ± 9) of the same compound?
A: 69 ± 12 pg/dL

Q: And the IL-6 (IL-6; Group III)?
A: 92 ± 8 pg/dL

Q: And the IL-6 (IL-6; Group IV)?
A: 73 ± 12 pg/dL

Q: What about the “levels of hyaluronic acid” value (hyaluronic acid) of the same compound?
A: decreased

Q: And the TNF-α (TNF-α; Group II, Control 21 ± 4, Group I 65 ± 15)?
A: 52 ± 17 pg/dL

Q: What about the TNF-α (TNF-α; Group III) of the same compound?
A: 32 ± 6 pg/dL

Q: What about the TNF-α (TNF-α; Group IV) of the same compound?
A: 45 ± 9 pg/dL

Q: And the “Viral charge after 3 months of treatment” value (chronic hepatitis B)?
A: 1.65 × 10^3 IU/ml
